These results are taken from publication PMC7251097, “Aspartate/asparagine-β-hydroxylase: a high-throughput mass spectrometric assay for discovery of small molecule inhibitors” (Scientific Reports, 2020).

In general, inhibition refers to the share of the control response that was lost under treatment. For orientation: IC50 means the point on the concentration scale where inhibition reaches its midpoint. As a reminder, the Ki is the equilibrium dissociation constant of an inhibitor or competing ligand from its target. A word on the Inhibition: it is the drop in the measured response relative to a control, in per cent. High values mean a response far below the control, low ones a response near the control. Usually % inhibition stands for the relative decrease from the control value, in per cent.

Several values for one entry are separate records, joined by “and”; a condition that tells them apart may be missing. Identical values can stand only once. Like-named read-outs stand apart in the source and are kept apart here. A value given as a limit tells only on which side of the number the result lay.

The target in one test is T1, His6-AspH315-758 (AspH) (Homo sapiens, UniProt Q12797).
T1 construct: freshly thawed His6-AspH315-758 was added; made in house; host or cells: E. coli BL21 (DE3), pET-28a(+) vector
T1 sequence (Q12797 315-758): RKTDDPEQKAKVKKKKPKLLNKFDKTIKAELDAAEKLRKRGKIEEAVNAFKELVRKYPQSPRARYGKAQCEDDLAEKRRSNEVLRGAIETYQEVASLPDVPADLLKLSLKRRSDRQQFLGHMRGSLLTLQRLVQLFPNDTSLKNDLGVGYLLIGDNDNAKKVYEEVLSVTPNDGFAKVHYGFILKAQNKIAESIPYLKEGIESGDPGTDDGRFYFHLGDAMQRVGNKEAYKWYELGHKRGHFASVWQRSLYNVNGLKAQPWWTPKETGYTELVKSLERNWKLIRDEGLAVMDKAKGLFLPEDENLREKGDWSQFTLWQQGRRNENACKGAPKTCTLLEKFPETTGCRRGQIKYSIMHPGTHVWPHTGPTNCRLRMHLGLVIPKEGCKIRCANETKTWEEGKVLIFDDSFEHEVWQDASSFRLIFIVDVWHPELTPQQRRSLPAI
The experiment in a line: Differential scanning fluorimetry (DSF) assay, shift of AspH melting temperature. The format is binding. The note with it: 20 μM inhibitor, 2 μM AspH, 50 μM NiCl2, with respect to DMSO controls, n = 2, mean ± SD; for ΔTm at 20 µM: read-out: Tm-shift (ΔTm) of AspH melting temperature [°C].

The target of test [1] is T2, His6-AspH315–758 (human aspartate/asparagine-β-hydroxylase, AspH) (Homo sapiens, UniProt Q12797).
T2 construct: N-Terminally His6-tagged human AspH315–758 (His6-AspH315–758) was produced in E. coli BL21 (DE3) cells; made in house; host or cells: E. coli BL21 (DE3), pET-28a(+) vector
T2 sequence (Q12797 315-758): T1 sequence (Q12797 315-758)
The experiment in a line: SPE-MS AspH inhibition assay (LOPAC screen at fixed 20 μM and IC50 dose-response), hydroxylation of cyclic peptide hFX-CP101–119. The test is classed as biochemical.

Another test concerns PHD2. The note with it: read-out: IC50 metal ion, PHD2, cited from earlier work.
The next test concerns the target FIH. The note with it: read-out: IC50 metal ion, FIH [μM] (Ki values are shown), cited from earlier work.
For another test, the system named is KDM4A. The note with it: read-out: IC50 metal ion, KDM4A, cited from earlier work.
The test system of another test is KDM4E. The note with it: read-out: IC50 metal ion, KDM4E, cited from earlier work.
A further test relates to TauD. The note with it: read-out: IC50 metal ion, TauD; cited from earlier work.
[2] abbreviates: AspH activity, fixed compound concentration 20 μM, initial LOPAC screen, 0.5%v/v DMSO, read-out: Inhibition at 20 µM [%].
The mark [3] stands for this setting: LOPAC Plate 4, compound at 20 uM, substrate conversion.
The mark [4] stands for this setting: 50 nM AspH, 2.0 μM Fe(II), Zn(OAc)2, NiSO4, CoCl2, MnCl2, CaCl2 as metal sources, n = 2, mean ± SD, read-out: IC50 metal ion, AspH.
[5] abbreviates: 5 μM Fe(II), Ki values are shown.
Setting [6] is: 50 nM His6-AspH315–758, 1.0 μM hFX-CP101–119, 3 μM 2OG, 2 μM Fe(II), 50 mM HEPES pH 7.5, 20 °C, mean ± SD, n = 2 (2,4-PDCA n = 10), read-out: IC50.
Where [7] appears, read: LOPAC compound at 20uM, plate 2, conversion of substrate peptide.
The mark [8] stands for this setting: LOPAC compound at 20uM, plate 2, normalised to DMSO and 2,4-PDCA controls.
Setting [9] is: LOPAC compound at 20uM, plate 3, conversion of substrate peptide.
Setting [10] is: plate 5 (Pfitzer), test compounds at fixed 20 μM.
Setting [11] is: LOPAC compound at fixed 20 uM, plate 1, normalised to DMSO and 2,4-PDCA controls.
[12] abbreviates: LOPAC compound at fixed 20 uM, substrate conversion, plate 1.
Where [13] appears, read: LOPAC Plate 4, compound at 20 uM.

As to `O=C(O)c1ccnc(C(=O)O)c1` [2,4-PDCA, pyridine-2,4-dicarboxylic acid], the ΔTm at 20 µM at His6-AspH315-758 (AspH) stood at 3.5 ± 0.6 °C.

Regarding `CCOc1nc2cccc(C(=O)OC(C)OC(=O)OC3CCCCC3)c2n1Cc1ccc(-c2ccccc2-c2nnn[nH]2)cc1` (stereo not shown) [Candesartan cilexetil, reference compound], in test [1] (setting [2]), the inhibition at 20 µM was determined as 100%. For the same compound, the “% conversion” value in test [1] (setting [3]) is recorded as 2.30%. Moreover, at His6-AspH315-758 (AspH), the “Tm-shift (ΔTm) of AspH melting temperature [°C]” value (“Tm-shift (ΔTm)” for short) was less than 0.3 °C and the ΔTm at 20 µM is 0.2 ± 0.1 °C.

Regarding `O=C(O)c1ccc(O)c2ncccc12` [IOX1], the “Tm-shift (ΔTm)” value at His6-AspH315-758 (AspH) was 2.8 ± 0.2 °C and ~ 2.8 °C.

In the case of `[Cl][Mn][Cl]` [Mn(II), MnCl2], the IC50 in test [1] (setting [4]) is 5.06 ± 1.02 µM; in the test with PHD2 (2 μM PHD2 and 20 μM Fe(II)), 21 µM; in the test on KDM4A (2 μM KDM4 and 10 μM Fe(II)), 101 µM; in the test with KDM4E (2 μM KDM4 and 10 μM Fe(II)), 224 µM. Moreover, the “Reduction of AspH inhibition compared to Zn(II)” value in test [1] (ratio of IC50 values against AspH, Table 2) is “approximately 100 fold”. Further, the inhibitory constant (Ki) on FIH (setting [5]) is 10 ± 1 µM.

In the case of `O=C(O)CNC(=O)C(=O)O` [NOG, N-oxalylglycine, reference compound], the IC50 in test [1] (setting [6]) was 1.09 ± 0.29 µM. For the same compound, at His6-AspH315-758 (AspH), the ΔTm at 20 µM is 2.8 ± 0.3 °C.

Turning to `O=S(=O)([O-])[O-].[Ni+2]` [Ni(II), NiSO4], the IC50 was 0.17 ± 0.08 µM in test [1] (read-out: IC50 metal ion, AspH); 185 µM with PHD2; 0.6 to 1 µM with TauD; 9.4 µM in the test with KDM4A; 15.6 µM in the test on KDM4E. For the same compound, the Ki on FIH is 4 ± 1 µM.

As to `Cc1ccc(-n2sc3ccccc3c2=O)cc1` [PBIT, 2-(4-methylphenyl)-1,2-benzisothiazol-3(2 H)-one, reference compound], the IC50 in test [1] (setting [6]) was determined as 0.14 ± 0.02 µM. Further, the “Tm-shift (ΔTm)” value on His6-AspH315-758 (AspH) was -15.2 ± 1.4 °C and ~ −15.2 °C.

As to `CC(=O)[O-].CC(=O)[O-].[Zn+2]` [Zn(II), Zn(OAc)2], the IC50 in test [1] (setting [4]) was ~0.05 µM and 0.05 µM; with PHD2 (2 μM PHD2 and 20 μM Fe(II)), 9.3 µM; with KDM4A (2 μM KDM4 and 10 μM Fe(II)), 7.8 µM; in the test on KDM4E (2 μM KDM4 and 10 μM Fe(II)) it was 13 µM. In addition, the Ki at FIH (setting [5]) was 0.5 ± 0.1 µM.

In the case of `O=C1C=CC(=O)C=C1` [p-Benzoquinone, reference compound], in test [1], the “Inhibition at 20 µM [%]” value came to 99.3%, the “Plate 1 (% conversion)” value was 2.52% and the “Plate 1 (% inhibition)” value turned out to be 99.30%.

Regarding `N[C@@H](Cc1ccc(F)cc1)C(=O)O` [p-Fluoro-L-phenylalanine], in test [1] (setting [7]), the “Plate 2 (% conversion)” value stood at 36.49%. Further, the “Plate 2 (% inhibition)” value in test [1] (setting [8]) is reported as -1.58%.

For the compound `Cl.Clc1cc(I)cc(Cl)c1NC1=NCCN1` [p-Iodoclonidine hydrochloride], the “Plate 3 (% conversion)” value in test [1] (setting [9]) stood at 40.33%.

Regarding `COc1ccccc1N1CCN(CCN(C(=O)c2ccc(F)cc2)c2ccccn2)CC1.Cl.Cl` [p-MPPF dihydrochloride], the “Plate 3 (% conversion)” value in test [1] (setting [9]) is 43.58%.

On to `O=c1c(O)c(-c2ccc(O)c(O)c2)oc2cc(O)cc(O)c12` [quercetin, reference compound], for which the IC50 in test [1] (setting [6]) worked out at 0.24 ± 0.01 µM. In addition, the inhibition at 20 µM came to 97.8% in test [1] (setting [2]) and 97.8% in test [1] (LOPAC Plate 4, compound at 20 uM, read-out: % inhibition). Besides, in test [1] (setting [3]), the “% conversion” value worked out at 3.10%.

On to `CCCc1nn(C)c2c(=O)[nH]c(-c3cc(S(=O)(=O)N4CCN(C)CC4)ccc3OCC)nc12` [sildenafil, reference compound], for which the “Plate 5 (% conversion)” value in test [1] was 6.67%. In addition, the IC50 in test [1] (setting [6]) came to 2.45 ± 0.36 µM. The inhibition at 20 µM in test [1] (setting [2]) was 97.8%. Besides, the “Plate 5 (% inhibition)” value in test [1] (setting [10]) is 87.11%.

With (+)-Catechin Hydrate, in test [1] (setting [11]), the “Plate 1 (% inhibition)” value was 90.19%. The “Plate 1 (% conversion)” value in test [1] (setting [12]) amounted to 5.58%.

Take (+)-Cyclazocine: in test [1], the “Plate 2 (% conversion)” value stood at 35.78%. For the same compound, the “Plate 2 (% inhibition)” value in test [1] (20 µM) was 0.54%.

Regarding (±)-Atenolol, in test [1] (setting [11]), the “Plate 1 (% inhibition)” value was determined as 7.50%.

For (±)-Butaclamol hydrochloride, the “Plate 1 (% inhibition)” value in test [1] (setting [11]) is -27.23%. Besides, the “Plate 1 (% conversion)” value in test [1] (setting [12]) is 45.02%.

Regarding BMS-193885, the “% conversion” value in test [1] (setting [3]) came to 32.96%.

For the compound CCT007093, the “% inhibition” value in test [1] (setting [13]) is 2.20%. For the same compound, the “% conversion” value in test [1] (setting [3]) stood at 35.72%.

As for CP-316819, in test [1], the “Plate 5 (% conversion)” value amounted to 34.19% and the “Plate 5 (% inhibition)” value was 6.23%.

Consider CP-335963, for which, in test [1], the “% conversion” value stood at 27.86% and the “Plate 5 (% inhibition)” value is listed as -8.78%.

CoCl2 [Co(II)]: the IC50 is 0.39 ± 0.13 µM in test [1] (read-out: IC50 metal ion, AspH); 48.3 µM in the test with PHD2; 1 to 3.5 µM in the test with TauD; 5.7 µM with KDM4A; 9.4 µM with KDM4E. For the same compound, the Ki on FIH is 1 ± 0.4 µM.

KRM-III: the “Plate 2 (% conversion)” value in test [1] (setting [7]) is recorded as 30.60%. In addition, the “Plate 2 (% inhibition)” value in test [1] (setting [8]) was determined as 15.99%.

On to LY-310,762 hydrochloride, for which the “Plate 3 (% conversion)” value in test [1] (setting [9]) worked out at 45.55%.

Take Maraviroc: in test [1], the “Plate 1 (% conversion)” value was found to be 50.71%, the “Plate 1 (% inhibition)” value was -44.18%, the “Plate 5 (% conversion)” value came out at 49.04% and the “Plate 5 (% inhibition)” value is on record as -37.39%.

PD-184161: in test [1] (setting [13]), the “% inhibition” value came out at 6.57%. The “% conversion” value in test [1] (setting [3]) came to 34.23%. The “Plate 5 (% inhibition)” value in test [1] (setting [10]) is recorded as 40.35%. The “Plate 5 (% conversion)” value in test [1] (plate 5 (Pfitzer), test compounds at fixed 20 μM, mean conversion DMSO 32.88) is recorded as 22.58%.

As to “Phenylbenzene-omega-phosphono-alpha-amino acid”, the “% conversion” value in test [1] came out at 25.21%.

Turning to Picrotoxin, the “Plate 3 (% conversion)” value in test [1] is reported as 36.08%.

With Rhodblock 6, the “Plate 1 (% inhibition)” value in test [1] (setting [11]) is recorded as -3.70%. In test [1] (setting [12]), the “Plate 1 (% conversion)” value was 37.11%.

For the compound Ro 8-4304, the “% inhibition” value in test [1] (setting [13]) is reported as -13.60%. Moreover, the “% conversion” value in test [1] (setting [3]) came to 41.11%.

Take Ro 20-1724: in test [1] (setting [11]), the “Plate 1 (% inhibition)” value was -0.20%. The “Plate 1 (% conversion)” value in test [1] (setting [12]) was 35.94%.

On to Ro 61-8048, for which the “Plate 3 (% conversion)” value in test [1] (setting [9]) worked out at 30.86%.

Turning to Ro 90-7501, the “Plate 3 (% conversion)” value in test [1] (setting [9]) came out at 39.97%.

As to trans-(±)-ACPD, in test [1], the “Plate 1 (% conversion)” value is 37.46% and the “Plate 1 (% inhibition)” value was -4.72%.
